Assay results published in US20230183742A1, “Viral Vector Production” (Oxford BioMedica (UK) Limited, priority 2020, published 2023).
Values joined by “and” are separate entries in the source; they are usually repeats but may differ in a detail not shown here. Identical values can stand only once. “Also recorded” adds a separate entry of the source. Like-named read-outs stand apart in the source and are kept apart here.

How the values were obtained:
Type in all cases: cell-based, human
HEK293T cells [1] = tested on: HEK293T cells
HEK293T cells [2] = tested on: HEK293T cells; remark: listed apart in the source
HEK293T cells [3] = details: single agent, FIG. 2; for concentration giving optimum vector production: induction 24 h post transfection
HEK1.65s cells [4] = assay: Example 3: cell viability measurements of induced HEK1.65s cells (Table 6); details: for Cell Viability (%): HEK1.65s; for Δ (cell viability vs No Induction Control): vs no induction control 78.8
HEK1.65s cells [5] = assay: Example 3 Experiment 2: sodium butyrate x prostratin DOE in suspension HEK1.65s, 24-well plate, GFP titration and JMP model; details: for optimum predicted concentration of combined induction agents: prediction profiler, FIG. 9C
HEK1.65s cells [6] = details: for inducing effect on LV titre among HDAC inhibitors: HEK1.65s, 24-well plate, FIG. 7, sodium valproate at 3 mM, valeric acid at 10 mM
HEK1.65s cells [7] = details: 11 μM prostratin + 8 mM sodium butyrate, 40 mL shake flask; FACS and integration QPCR, FIGS. 10A & B
HEK1.65s cells [8] = assay: Example 4: 40 mL shake flask vector production, titre by duplex QPCR integration assay; details: VRC vs VRC+55 nM prostratin, FIG. 10B
HEK1.65s cells [9] = tested on: HEK1.65s cells
HEK1.65s cells [10] = tested on: HEK1.65s cells; remark: listed apart in the source
[11] = tested on: HEK293T.1-65s suspension cells
[12] = tested on: suspension (serum-free) HEK293T cells; assay: Example 8: GFP reporter expression from constitutive promoters in suspension HEK293T with or without prostratin, flow cytometry; details: 11 μM prostratin with 10 mM sodium butyrate, two pDNA input levels, FIG. 18
HEK293T cells [13] = assay: FIG. 13/14: standard or MSD-mutated lentiviral vector production in HEK293T with modified U1 snRNA, titration and RT-PCR of aberrant splice product; details: modified U1 snRNA co-expressed during production of standard and MSD-mutated LVs
[14] = 256U1 snRNA expression combined with 11 μM prostratin at induction
[15] = single titre enhancing agent (256U1 expression or 11 μM prostratin), 10 mM sodium butyrate
[16] = 11 μM prostratin with 10 mM sodium butyrate

Molecule: CC(=O)NCCCCCCNC(C)=O [HMBA]
- effect on titre in combination with prostratin and sodium butyrate (HEK293T cells [1]; 8 mM HMBA, compared to conditions where HMBA was excluded): notable decrease
- effect on titre in combination with alternate HDAC inhibitors (HEK293T cells [1]; with sodium valproate, valeric acid or SAHA, FIG. 6): negative effects on titre
- titre relative to the no-induction control (HEK293T cells [2]): approximately 4 fold
- effect on titre of combination with HDAC inhibitors (HEK293T cells [2]; compared with HDAC inhibitor alone): no or only marginal improvements in titres; also recorded: did not produce any positive effects on titre
- optimum concentration for vector induction (HEK293T cells [2]; single agent, FIG. 4): 16 mM

Molecule: CC(=O)N[C@@H](CS)C(=O)O [NAC, N-Acetyl Cysteine]
- effect on vector titre (HEK293T cells [3]): no positive impact on titre

Molecule: CCCCCCCCCCCCCC(=O)O[C@@H]1[C@@H](C)[C@@]2(O)[C@@H](C=C(CO)C[C@]3(O)C(=O)C(C)=C[C@@H]23)[C@@H]2C(C)(C)[C@]12OC(C)=O [PMA, Phorbol 12-myristate 13-acetate]
- effect on vector titre (HEK293T cells [3]): highest vector induction
- optimum concentration for vector induction (HEK293T cells [2]): 3.2e-05 mM
- titre relative to the no-induction control (HEK293T cells [2]): approximately 4 fold

Molecule: O=C(CCCCCCC(=O)Nc1ccccc1)NO [SAHA, suberanilohydroxamic acid]
- concentration giving optimum vector production (HEK293T cells [3]): 0.0025 mM
- optimum concentration for vector induction (HEK293T cells [2]; single agent, FIG. 4): 0.001 mM

Molecule: CC(/C=C/C(=O)NO)=C\[C@@H](C)C(=O)c1ccc(N(C)C)cc1 [TSA]
- effect on vector titre (HEK293T cells [3]): failed to improve vector titres

Molecule: O=C(OC[C@H]1O[C@@H](OC(=O)c2cc(O)c(O)c(OC(=O)c3cc(O)c(O)c(O)c3)c2)[C@H](OC(=O)c2cc(O)c(O)c(OC(=O)c3cc(O)c(O)c(O)c3)c2)[C@@H](OC(=O)c2cc(O)c(O)c(OC(=O)c3cc(O)c(O)c(O)c3)c2)[C@@H]1OC(=O)c1cc(O)c(O)c(OC(=O)c2cc(O)c(O)c(O)c2)c1)c1cc(O)c(O)c(OC(=O)c2cc(O)c(O)c(O)c2)c1 [Tannic acid, tannic acid]
- effect on vector titre (HEK293T cells [3]): no measurable vector production

Molecule: CC(=O)O[C@@]12C[C@@H](C)[C@@]3(O)[C@@H](C=C(CO)C[C@]4(O)C(=O)C(C)=C[C@@H]34)[C@@H]1C2(C)C [prostratin, 12-Deoxyphorbol-13-acetate]
- Cell Viability (%) (HEK1.65s cells [4]; 2 μM prostratin, condition 3, vector production period of 48 hours): 79.4%
- Δ (cell viability vs No Induction Control) (HEK1.65s cells [4]; 2 μM prostratin, condition 3): +0.6
- Cell Viability (%) (HEK1.65s cells [4]; 16 μM prostratin, condition 9, vector production period of 48 hours): 82.2%
- Δ (cell viability vs No Induction Control) (HEK1.65s cells [4]; 16 μM prostratin, condition 9): +3.4
- Cell Viability (%) (HEK1.65s cells [4]; 32 μM prostratin, condition 45, vector production period of 48 hours): 79.8%
- Δ (cell viability vs No Induction Control) (HEK1.65s cells [4]; 32 μM prostratin, condition 45): +1
- effect on cell viability (HEK1.65s cells [4]; prostratin 2-32 μM, vector production period of 48 hours): did not present any further loss in cell viability; also recorded: little cytotoxic effect; also recorded: no decrease in cell viability
- increase of LV titre above optimum sodium butyrate (8 mM) alone (HEK1.65s cells [5]; 11 μM prostratin with 8 mM sodium butyrate, DOE model optimum): 1.93 fold and ~2 fold
- increase of GFP-HIV LV titres in combination with HDAC inhibitors (HEK1.65s cells [5]; Example 3 as summarised in Example 4, 24-well plate scale): ≥ 2 fold
- effect on titre in combination with sodium butyrate (HEK1.65s cells [5]; FIG. 8): marked positive effect on titre
- lowest concentrations causing an increase in titre (HEK1.65s cells [5]; in combination with sodium butyrate): 2 to 4 µM
- optimum predicted concentration of combined induction agents (HEK1.65s cells [5]): 11 µM
- increase in vector titre compared to the no induction control (HEK1.65s cells [5]; prostratin alone at 8-16 μM): ~13 fold and > 10 fold
- inducing effect relative to optimum sodium butyrate (HEK1.65s cells [5]; prostratin alone at 8-16 μM): approximately half the inducing effect of optimum sodium butyrate concentrations
- effect on titre of addition alongside HDACi (HEK1.65s cells [6]; prostratin 4-8 μM with HDACi, nearly all cases): increased titres
- increase in vector titre (HEK293T cells [1]; 10 μM prostratin in combination with 10 mM sodium butyrate): 92%
- effect on induction of increasing prostratin from 1 to 10 μM (HEK293T cells [1]; throughout all the tested HDAC inhibitors, FIG. 6): positive enhancement of induction
- vector titre relative to induction with sodium butyrate alone (HEK1.65s cells [7]): 2.4- to 2.9 fold
- effect of residual prostratin on titres from the integration assay (HEK1.65s cells [8]): identical titres
- effect on vector titre (HEK293T cells [3]): highest vector induction
- titre increase compared to standard production control, CAR #1 vector (HEK1.65s cells [9]; [14]): 125 fold
- titre increase compared to standard production control, CAR #2-T2A-GFP vector (HEK1.65s cells [9]; [14]): 4.5 fold
- titre increase compared to standard production control, CAR #2 vector (HEK1.65s cells [9]; [14]): 7.9 fold
- titre increase compared to standard production control, CAR #1 vector (HEK1.65s cells [9]; [15]): 24 fold
- titre increase compared to standard production control, CAR #2-T2A-GFP vector (HEK1.65s cells [9]; [15]): 2 fold
- titre increase compared to standard production control, CAR #2 vector (HEK1.65s cells [9]; [15]): 2.6 fold
- increase in EIAV-CMV-GFP titre compared to the control titre (HEK1.65s cells [10]; [16]): 2 fold
- EIAV-CMV-GFP vector titre at harvest (HEK1.65s cells [10]; 11 μM prostratin with 10 mM sodium butyrate at induction): 9.1E+05 TU/mL
- titres of MSD-mutated LV with Prostratin and 256U1 applied together ([11]; 11 μM Prostratin + 256U1 co-transfection, versus standard LV without inducers): higher that standard LV production titres; also recorded: increased higher than standard SIN-LV vectors
- increase in titres of MSD-mutated LV vectors ([11]; 11 μM Prostratin added at the sodium butyrate step, HIV-MSD2KOm5-EFS-GFP or -EF1a-GFP, FIG. 15): 5-10 fold
- effect on titres of MSD-mutated and standard SIN-LV [11, 16]: boosted titres
- titre relative to the no-induction control (HEK293T cells [2]): approximately 4 fold
- increase of MFI from GFP FACS of transduced cells (HEK293T cells [2]; 16 μM prostratin at induction, residual 0.4 μM after 40-fold vector dilution): 26%
- MFI from GFP FACS of transduced cells (HEK293T cells [2]; 0.5 to 8 μM prostratin at induction): not observed to change
- optimum concentration for vector induction (HEK293T cells [2]; single agent, FIG. 4): 0.016 mM
- induction of GFP transgene expression from constitutive promoters [12]: induction of expression from the promoters; also recorded: clear induction

Molecule: CCCC(=O)[O-].[Na+] [sodium butyrate]
- Cell Viability (%) (HEK1.65s cells [4]; 10 mM sodium butyrate, condition 35, vector production period of 48 hours): 74.8%
- Δ (cell viability vs No Induction Control) (HEK1.65s cells [4]; 10 mM sodium butyrate, condition 35): −4
- loss in cell viability (HEK1.65s cells [4]; sodium butyrate treated cells, vector production period of 48 hours): 4%
- optimum predicted concentration of combined induction agents (HEK1.65s cells [5]): 8000 µM
- inducing effect on LV titre among HDAC inhibitors (HEK1.65s cells [6]): highest LV titres
- concentration giving optimum vector production (HEK293T cells [3]): 5 mM

Molecule: CCCC(CCC)C(=O)[O-].[Na+] [sodium valproate]
- inducing effect on LV titre among HDAC inhibitors (HEK1.65s cells [6]): some inducing effect
- concentration giving optimum vector production (HEK293T cells [3]): 10 mM
- optimum concentration for vector induction (HEK293T cells [2]; single agent, FIG. 4): 10 mM

Molecule: CCCCC(=O)O [valeric acid]
- inducing effect on LV titre among HDAC inhibitors (HEK1.65s cells [6]): some inducing effect
- concentration giving optimum vector production (HEK293T cells [3]): 20 mM
- optimum concentration for vector induction (HEK293T cells [2]; single agent, FIG. 4): 10 mM

B1: 256U1: modified U1 snRNA targeting nt256-270 (SL1 loop) of the HIV-1 packaging signal; expression construct SEQ ID NO: 22 (nucleic acid)
DNA: TAAGGACCAGCTTCTTTGGGAGAGAACAGACGCAGGGGCGGGAGGGAAAAAGGGAGAGGCAGACGTCACTTCCCCTTGGCGGCTCTGGCAGCAGATTGGTCGGTTGAGTGGCAGAAAGGCAGACGGGGACTGGGCAAGGCACTGTCGGTGACATCACGGACAGGGCGACTTCTATGTAGATGAGGCAGCGCAGAGGCTGCTGCTTCGCCACTTGCTGCTTCACCACGAAGGAGTTCCCGTGCCCTGGGAGCGGGTTCAGGACCGCTGATCGGAAGTGAGAATCCCAGCTGTGTGTCAGGGCTGGAAAGGGCTCGGGAGTGCGCGGGGCAAGTGACCGTGTGTGTAAAGAGTGAGGCGTATGAGGCTGTGTCGGGGCAGAGGCCCAAGATCTCATTTGCCGTGCGCGCTTGCAGGGGAGATACCATGATCACGAAGGTGGTTTTCCCAGGGCGAGGCTTATCCATTGCACTCCGGATGTGCTGACCCCTGCGATTTCCCCAAATGTGGGAAACTCGACTGCATAATTTGTGGTAGTGGGGGACTGCGTTCGCGCTTTCCCCTGGTTTCAAAAGTAGACTGTACGCTAAGGGTCATATCTTTTTTTGTTTTGGTTTGTGTCTTGGTTGGCGTCTTAAATGTTAA
modifications: DNA-based expression constructs for the modified U1 snRNAs
- effect on lentiviral vector titres (HEK293T cells [13]): capable of increasing lentiviral vector titres
- titre increase compared to standard production control, CAR #1 vector (HEK1.65s cells [9]; [15]): 46 fold
- titre increase compared to standard production control, CAR #2-T2A-GFP vector (HEK1.65s cells [9]; [15]): 2.7 fold
- titre increase compared to standard production control, CAR #2 vector (HEK1.65s cells [9]; [15]): 2.5 fold
